Read-outs that look alike come from different tables or passages of the source.
Tests used:
[1] = In vitro plasma protein binding (PPB); type: in vitro ADME; conditions: percentage of free/unbound compound
[2] = tested on: NCI-H1975 cells (EGFR T790M L858R); assay: EGFR-SOS cellular inhibition assay (CellTiter-Glo, 3D); type: cell-based; conditions: Homo sapiens
SOS1 = SOS1 (Homo sapiens (Human), UniProt Q07889); assay: Ras-SOS interaction assay (HTRF); type: biochemical
[3] = tested on: MIA PaCa-2 cells (K-Ras G12C); assay: Ras-SOS cellular growth inhibition assay (CellTiter-Glo, 3D); type: cell-based; conditions: Homo sapiens
How it was run: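 Growth read by CellTiter-Glo luminescence about 5 days after dosing with 3-fold dilutions (9 points), added one day post-seeding. Cells: MIA PaCa-2, 3D culture on ultra-low-attachment surface, medium DMEM/Ham's F12 plus 10% FCS and 2.5% horse serum; IC50 by four-parameter fit.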

[4] = Metabolic (microsomal) stability assay; type: in vitro ADME; conditions: mouse liver microsomes, T1/2; read-out: DMPK-invitro-metabolic Stability (Mouse T1/2)
Text: Example 12: Metabolic (Microsomal) Stability Assay

[5] = 120 h, NCI-H1975, 3D proliferation, about 5 days, read-out: Bio-Cell-Prolif-3D (H1975 IC50)
[6] = NCI-H1975, EGFR T790M L858R, read-out: IC50 in inhibiting growth of NCI-H1975 cell line
[7] = K-RasG13D utilized, read-out: IC50 inhibition of SOS
[8] = K-RasG13D, read-out: IC50 value against SOS1
[9] = MIA PaCa-2, 120 h, MIA PaCa-2, 3D proliferation, about 5 days, read-out: Bio-Cell-Prolif-3D (MiaPaca2 IC50)
[10] = MIA PaCa-2, MIA PaCa-2, read-out: IC50 in inhibiting MIA PaCa-2 cell growth

Chain of SOS1 (Q07889 564-1049): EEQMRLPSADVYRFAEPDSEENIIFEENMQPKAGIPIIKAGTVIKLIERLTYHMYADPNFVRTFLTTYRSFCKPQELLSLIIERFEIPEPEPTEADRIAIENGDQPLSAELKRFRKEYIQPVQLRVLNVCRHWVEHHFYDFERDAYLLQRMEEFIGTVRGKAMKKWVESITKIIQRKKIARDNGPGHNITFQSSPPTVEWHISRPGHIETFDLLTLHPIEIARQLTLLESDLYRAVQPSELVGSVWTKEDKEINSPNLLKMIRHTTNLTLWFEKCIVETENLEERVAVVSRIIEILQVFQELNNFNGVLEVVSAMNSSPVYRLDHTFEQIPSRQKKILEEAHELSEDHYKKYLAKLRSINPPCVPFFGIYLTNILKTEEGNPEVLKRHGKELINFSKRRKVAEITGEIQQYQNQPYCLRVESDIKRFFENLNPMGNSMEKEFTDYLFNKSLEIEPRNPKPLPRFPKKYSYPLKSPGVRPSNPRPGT

| Structure (SMILES) | DMPK-invitro-PPB (Mouse Unbound) [%] [1] [%] | IC50 [2, 5] [nM] | IC50 [2, 6] [nM] | IC50 (SOS1; [7]) [nM] | IC50 (SOS1; [8]) [nM] | IC50 [3, 9] [nM] | IC50 [3, 10] [nM] | half-life [4] [min] |
| --- | --- | --- | --- | --- | --- | --- | --- | --- |
| COc1nc2nc(C)nc(N[C@H](C)c3cccc(C(F)(F)C(C)(C)O)c3)c2cc1C1(C#N)CC1 [Compound 175, (R)-1-(4-((1-(3-(1,1-difluoro-2-hydroxy-2-methylpropyl)phenyl)ethyl)amino)-7-methoxy-2-methylpyrido[2,3-d]pyrimidin-6-yl)cyclopropane-1-carbonitrile] | 0.11 | ≤ 1000 | < 500 | < 100 | < 50 | ≤ 1000 | < 500 | 198 |
| COc1nc2nc(C)nc(N[C@H](C)c3cccc(C(F)(F)C(C)(C)O)c3F)c2cc1C1(C#N)CC1 [Compound 207, (R)-1-(4-((1-(3-(1,1-difluoro-2-hydroxy-2-methylpropyl)-2-fluorophenyl)ethyl)amino)-7-methoxy-2-methylpyrido[2,3-d]pyrimidin-6-yl)cyclopropane-1-carbonitrile] | 0.06 | ≤ 1000 | < 500 | < 100 | < 50 | ≤ 1000 |  | > 200 |
| Cc1nc(N[C@H](C)c2cccc(C(F)F)c2F)c2cc(C3(C#N)CC3)c(OC3CN(C)C3)nc2n1 [Compound 234, (R)-1-(4-((1-(3-(difluoromethyl)-2-fluorophenyl)ethyl)amino)-2-methyl-7-((1-methylazetidin-3-yl)oxy)pyrido[2,3-d]pyrimidin-6-yl)cyclopropane-1-carbonitrile] |  | ≤ 1000 | < 500 | < 100 | < 50 | ≤ 1000 |  | 42.2 |
| COc1nc2nc(C)nc(N[C@H](C)c3cccc(C(F)(F)[C@H](C)O)c3F)c2cc1C1(C#N)CC1 [Compound 256, 1-(4-(((R)-1-(3-((S)-1,1-difluoro-2-hydroxypropyl)-2-fluorophenyl)ethyl)amino)-7-methoxy-2-methylpyrido[2,3-d]pyrimidin-6-yl)cyclopropane-1-carbonitrile] | 0.77 | ≤ 1000 | < 500 | < 100 | < 50 | ≤ 1000 | < 500 | 37.2 |
| Cc1nc(N[C@H](C)c2cccc(C(F)F)c2F)c2cc(C3(C#N)CC3)c(O[C@@H]3CCOC3)nc2n1 [Compound 298, 1-(4-(((R)-1-(3-(difluoromethyl)-2-fluorophenyl)ethyl)amino)-2-methyl-7-(((R)-tetrahydrofuran-3-yl)oxy)pyrido[2,3-d]pyrimidin-6-yl)cyclopropane-1-carbonitrile] |  | ≤ 1000 |  | 100 to 1000 |  | ≤ 1000 |  | 1.5 |
| Cc1nc(N[C@H](C)c2cccc(C(F)(F)F)c2F)c2cc(C3(C#N)CC3)c(Cl)nc2n1 [Compound 300, (R)-1-(7-chloro-4-((1-(2-fluoro-3-(trifluoromethyl)phenyl)ethyl)amino)-2-methylpyrido[2,3-d]pyrimidin-6-yl)cyclopropane-1-carbonitrile] | 0.47 | ≤ 1000 |  | < 100 |  | ≤ 1000 |  | 70.6 |
| COc1nc2ncnc(N[C@H](C)c3cccc(C(F)(F)[C@H](C)O)c3F)c2cc1C1(C#N)CC1 [Compound 327, 1-(4-(((R)-1-(3-((S)-1,1-difluoro-2-hydroxypropyl)-2-fluorophenyl)ethyl)amino)-7-methoxypyrido[2,3-d]pyrimidin-6-yl)cyclopropane-1-carbonitrile] | 2.34 | ≤ 1000 | < 500 | < 100 | < 50 | ≤ 1000 | < 500 | 131 |
| COc1nc2ncnc(N[C@H](C)c3cccc(C(F)(F)[C@@H](C)O)c3F)c2cc1C1(C#N)CC1 [Compound 329, 1-(4-(((R)-1-(3-((R)-1,1-difluoro-2-hydroxypropyl)-2-fluorophenyl)ethyl)amino)-7-methoxypyrido[2,3-d]pyrimidin-6-yl)cyclopropane-1-carbonitrile] | 2.72 | ≤ 1000 | < 500 | < 100 | < 50 | ≤ 1000 | < 500 | 120 |
| Cc1nc(N[C@H](C)c2cccc(C(F)F)c2F)c2cc(C3(C#N)CC3)c(Cl)nc2n1 [Compound 352, (R)-1-(7-chloro-4-((1-(3-(difluoromethyl)-2-fluorophenyl)ethyl)amino)-2-methylpyrido[2,3-d]pyrimidin-6-yl)cyclopropane-1-carbonitrile] |  | ≤ 1000 | < 500 | < 100 | < 50 | ≤ 1000 | < 500 | 31 |
| C[C@@H](Nc1ncnc2nc(Cl)c(C3(C#N)CC3)cc12)c1cccc(C(F)(F)C(C)(C)O)c1F [Compound 361, (R)-1-(7-chloro-4-((1-(3-(1,1-difluoro-2-hydroxy-2-methylpropyl)-2-fluorophenyl)ethyl)amino)pyrido[2,3-d]pyrimidin-6-yl)cyclopropane-1-carbonitrile] |  | ≤ 1000 | < 500 | < 100 | < 50 | 1000 to 10000 |  | > 200 |
| C[C@@H](Nc1ncnc2nc(Cl)c(C3(C#N)CC3)cc12)c1cccc(C(F)(F)CO)c1F [Compound 362, (R)-1-(7-chloro-4-((1-(3-(1,1-difluoro-2-hydroxyethyl)-2-fluorophenyl)ethyl)amino)pyrido[2,3-d]pyrimidin-6-yl)cyclopropane-1-carbonitrile] |  | ≤ 1000 | < 500 | < 100 | < 50 | 1000 to 10000 |  | 49 |
| C[C@@H](Nc1ncnc2nc(Cl)c(C3(C#N)CC3)cc12)c1cccc(C(F)(F)C(C)(C)O)c1 [Compound 363, (R)-1-(7-chloro-4-((1-(3-(1,1-difluoro-2-hydroxy-2-methylpropyl)phenyl)ethyl)amino)pyrido [2,3-d]pyrimidin-6-yl)cyclopropane-1-carbonitrile] |  | ≤ 1000 | < 500 | < 100 | < 50 | ≤ 1000 | < 500 | > 200 |
| C[C@@H](Nc1ncnc2nc(Cl)c(C3(C#N)CC3)cc12)c1cccc(C(F)(F)[C@@H](C)O)c1F [Compound 365, 1-(7-chloro-4-(((R)-1-(3-((R)-1,1-difluoro-2-hydroxypropyl)-2-fluorophenyl)ethyl)amino)pyrido [2,3-d]pyrimidin-6-yl)cyclopropane-1-carbonitrile] |  | ≤ 1000 | < 500 | < 100 | < 50 | ≤ 1000 |  | > 200 |
| C[C@@H](Nc1ncnc2nc(OC3COC3)c(C3(C#N)CC3)cc12)c1cccc(C(F)F)c1F [Compound 400, (R)-1-(4-((1-(3-(difluoromethyl)-2-fluorophenyl)ethyl)amino)-7-(oxetan-3-yloxy)pyrido[2,3-d]pyrimidin-6-yl)cyclopropane-1-carbonitrile] |  | ≤ 1000 |  | 100 to 1000 |  | ≤ 1000 | < 500 | 29.4 |
| Cc1nc(N[C@H](C)c2cccc(C(F)F)c2F)c2cc(C3(C#N)CC3)c(OC3COC3)nc2n1 [Compound 402, (R)-1-(4-((1-(3-(difluoromethyl)-2-fluorophenyl)ethyl)amino)-2-methyl-7-(oxetan-3-yloxy)pyrido[2,3-d]pyrimidin-6-yl)cyclopropane-1-carbonitrile] |  | ≤ 1000 |  | < 100 |  | ≤ 1000 | < 500 | 19.3 |
| C[C@@H](Nc1ncnc2nc(OC3CN(C)C3)c(C3(C#N)CC3)cc12)c1cccc(C(F)F)c1F [Compound 405, (R)-1-(4-((1-(3-(difluoromethyl)-2-fluorophenyl)ethyl)amino)-7-((1-methylazetidin-3-yl)oxy)pyrido[2,3-d]pyrimidin-6-yl)cyclopropane-1-carbonitrile] |  | ≤ 1000 | < 500 | < 100 | < 50 | ≤ 1000 |  | > 200 |
| C[C@@H](Nc1ncnc2nc(O[C@@H]3CCOC3)c(C3(C#N)CC3)cc12)c1cccc(C(F)F)c1F [Compound 409, 1-(4-(((R)-1-(3-(difluoromethyl)-2-fluorophenyl)ethyl)amino)-7-(((R)-tetrahydrofuran-3-yl)oxy)pyrido[2,3-d]pyrimidin-6-yl)cyclopropane-1-carbonitrile] |  | ≤ 1000 | < 500 | 100 to 1000 |  | ≤ 1000 |  | 5.6 |
| C[C@H](O)C(F)(F)c1cccc([C@@H](C)Nc2ncnc3nc(Cl)c(C4(C#N)CC4)cc23)c1F [Compound 417, 1-(7-chloro-4-(((R)-1-(3-((S)-1,1-difluoro-2-hydroxypropyl)-2-fluorophenyl)ethyl)amino)pyrido[2,3-d]pyrimidin-6-yl)cyclopropane-1-carbonitrile] |  | ≤ 1000 | < 500 | < 100 | < 50 | ≤ 1000 |  | > 200 |
